Experimental data published in patent US8710043B2, “TRPM8 antagonists and their use in treatments” (Amgen Inc., priority 2011, dated 2014).

These molecules were tested against T1, human TRPM8 (Homo sapiens, UniProt Q7Z2W7) (assay: Luminescence readout assay for measuring intracellular calcium, icilin activation). Details: CHO cells expressing human TRPM8, aequorin luminescence, 1 μM icilin activation; read-out: hTRPM8 IC50.
T1 construct: expressed in transfected cells; host or cells: Chinese hamster ovary (CHO) cells, T-REx tetracycline-inducible system, co-transfected with aequorin
Assay type: cell-based
In short: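 The read-out was luminescence reporting intracellular calcium, recorded by a CCD-based luminometer. Compounds were preincubated for 2.5 min before agonist challenge with 1 μM icilin. Human TRPM8 was expressed in a stable T-REx CHO line, induced with 0.5 μg/mL tetracycline the day before.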

T1 sequence (Q7Z2W7 whole entry): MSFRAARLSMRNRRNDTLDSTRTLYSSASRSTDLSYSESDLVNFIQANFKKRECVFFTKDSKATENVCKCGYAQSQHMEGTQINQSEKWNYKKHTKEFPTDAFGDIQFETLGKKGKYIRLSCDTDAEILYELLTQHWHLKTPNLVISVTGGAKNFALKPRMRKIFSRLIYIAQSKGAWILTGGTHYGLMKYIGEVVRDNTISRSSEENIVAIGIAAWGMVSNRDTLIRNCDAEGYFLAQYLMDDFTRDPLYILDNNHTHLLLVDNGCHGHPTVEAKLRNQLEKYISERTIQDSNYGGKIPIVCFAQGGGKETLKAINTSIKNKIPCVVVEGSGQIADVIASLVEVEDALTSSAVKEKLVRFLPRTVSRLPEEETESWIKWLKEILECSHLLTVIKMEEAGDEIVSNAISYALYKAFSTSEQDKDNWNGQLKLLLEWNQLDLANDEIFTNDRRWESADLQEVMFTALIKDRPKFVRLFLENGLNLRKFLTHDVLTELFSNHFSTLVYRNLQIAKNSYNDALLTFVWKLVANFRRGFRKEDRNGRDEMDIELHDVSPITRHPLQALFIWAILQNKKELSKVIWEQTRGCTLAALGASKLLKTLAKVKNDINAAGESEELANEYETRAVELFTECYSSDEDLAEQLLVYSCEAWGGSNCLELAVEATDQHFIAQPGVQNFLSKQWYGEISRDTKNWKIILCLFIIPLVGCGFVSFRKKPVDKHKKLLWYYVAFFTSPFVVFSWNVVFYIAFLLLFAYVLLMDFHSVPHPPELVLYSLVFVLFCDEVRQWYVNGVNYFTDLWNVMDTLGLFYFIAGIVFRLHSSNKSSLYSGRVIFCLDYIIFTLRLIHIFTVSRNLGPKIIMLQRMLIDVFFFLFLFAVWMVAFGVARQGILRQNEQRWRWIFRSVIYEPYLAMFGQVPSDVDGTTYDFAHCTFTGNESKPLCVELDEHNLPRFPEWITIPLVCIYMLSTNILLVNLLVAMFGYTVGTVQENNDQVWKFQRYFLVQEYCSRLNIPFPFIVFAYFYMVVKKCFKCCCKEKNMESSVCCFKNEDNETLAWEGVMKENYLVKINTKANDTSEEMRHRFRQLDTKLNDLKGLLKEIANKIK

Row | IC50 | Compound
1 | 81.5 nM | O=C(N[C@@H](c1ccc(C(F)(F)F)cc1)c1ncccc1C(F)(F)F)c1ccnnc1 [Example 212, (S)-N-((4-(trifluoromethyl)phenyl)(3-(trifluoromethyl)pyridin-2-yl)methyl)pyridazine-4-carboxamide]
2 | 395 nM | Cc1cc(C)n2nc(C(=O)N[C@@H](c3ccc(C(F)(F)F)cc3)c3ncccc3C(F)(F)F)nc2n1 [Example 151, (S)-5,7-dimethyl-N-((4-(trifluoromethyl)phenyl)(3-(trifluoromethyl)pyridin-2-yl)methyl)-[1,2,4]triazolo[1,5-a]pyrimidine-2-carboxamide 2,2,2-trifluoroacetate]
3 | 11.4 nM | O=C(N[C@@H](c1ccc(OC(F)(F)F)c(F)c1)c1ncccc1F)c1cc2oc(=O)[nH]c2cn1 [Example 438, (S)—N-((3-Fluoro-4-(trifluoromethoxy)phenyl)(3-fluoropyridin-2-yl)methyl)-2-oxo-2,3-dihydrooxazolo[4,5-c]pyridine-6-carboxamide]
4 | 418 nM | O=C(N[C@@H](c1ccc2ncccc2c1)c1ncccc1C(F)(F)F)c1ccc2cccnc2c1 [Example 22, (S)-N-(quinolin-6-yl(3-(trifluoromethyl)pyridin-2-yl)methyl)quinoline-7-carboxamide]
5 | 5.3 nM | Cc1cccnc1[C@@H](NC(=O)c1ccc2oc(=O)[nH]c2c1)c1ccc(C(F)(F)F)cc1 [Example 84, (S)-N-((3-methylpyridin-2-methyl)phenyl)yl)(4-(trifluoromethyl)-2-oxo-2,3-dihydrobenzo[d]oxazole-5-carboxamide]
6 | 31.4 nM | O=C(N[C@@H](c1ccc(OC(F)(F)F)cc1)c1ncccc1F)c1ccc(-c2nc(=O)o[nH]2)cc1 [Example 316, (S)-N-((3-fluoropyridin-2-yl)(4-(trifluoromethoxy)phenyl)methyl)-4-(5-oxo-2,5-dihydro-1,2,4-oxadiazol-3-yl)benzamide]
7 | 19.3 nM | Cn1cc(C(=O)N[C@@H](c2ccc(Cl)c(Cl)c2)c2ncccc2F)ccc1=O [Example 251, (S)-N-((3,4-dichlorophenyl)(3-fluoropyridin-2-yl)methyl)-1-methyl-6-oxo-1,6-dihydropyridine-3-carboxamide 2,2,2-trifluoroacetate]
8 | 46.4 nM | O=C(N[C@@H](c1ccc(C(F)(F)F)cc1)c1ncccc1C(F)(F)F)c1cccs1 [Example 138, (S)-N-((4-(trifluoromethyl)phenyl)(3-(trifluoromethyl)pyridin-2-yl)methyl)thiophene-2-carboxamide]
9 | 87.4 nM | O=C(N[C@@H](c1ccc(C(F)(F)F)cc1)c1ncccc1C(F)(F)F)c1cn[nH]c1 [Example 143, (S)-N-((4-(trifluoromethyl)phenyl)(3-(trifluoromethyl)pyridin-2-yl)methyl)-1H-pyrazole-4-carboxamide]
10 | 83.3 nM | O=C(N[C@@H](c1cccc(Cl)c1)c1ncccc1C(F)(F)F)c1ccc2cccnc2c1 [Example 13, (S)-N-((3-chlorophenyl)(3-(trifluoromethyl)pyridin-2-yl)methyl)quinoline-7-carboxamide]
11 | 202 nM | O=C(N[C@@H](c1ccc(C(F)(F)F)cc1)c1ncccc1F)c1n[nH]c2c1CCCC2 [Example 322, (S)-N-((3-fluoropyridin-2-yl)(4-(trifluoromethyl)phenyl)methyl)-4,5,6,7-tetrahydro-1H-indazole-3-carboxamide]
12 | 128 nM | O=C(N[C@@H](c1ccc(C(F)(F)F)cc1)c1ncsc1Br)c1ccc2ncccc2c1 [Example 259, (S)-N-((5-bromothiazol-4-yl)(4-(trifluoromethyl)phenyl)methyl)quinoline-6-carboxamide 2,2,2-trifluoroacetate]
13 | 164 nM | O=C(N[C@@H](c1ccc(C(F)(F)F)cc1)c1ncccc1F)c1n[nH]c2c1CCC2 [Example 321, (S)-N-((3-fluoropyridin-2-yl)(4-(trifluoromethyl)phenyl)methyl)-1,4,5,6-tetrahydrocyclopenta[c]pyrazole-3-carboxamide]
14 | 85.3 nM | CNS(=O)(=O)c1ccc(C(=O)N[C@@H](c2ccc(C(F)(F)F)cc2)c2ncccc2F)cc1 [Example 74, (S)-N-((3-fluoropyridin-2-yl)(4-(trifluoromethyl)phenyl)methyl)-4-(N-methylsulfamoyl)benzamide]
15 | 241 nM | COC(=O)c1ccc(C(=O)N[C@@H](c2ccc(OC(F)(F)F)c(F)c2)c2ccccn2)nc1 [Example 406, (S)-methyl 6-(((3-fluoro-4-(trifluoromethoxy)phenyl)(pyridin-2-yl)methyl)carbamoyl)nicotinate]
16 | 3320 nM | Cc1nccn1CC(=O)N[C@@H](c1ccc(C(F)(F)F)cc1)c1ncccc1C(F)(F)F [Example 160, (S)-2-(2-methyl-1H-imidazol-1-yl)-N-((4-(trifluoromethyl)phenyl)(3-(trifluoromethyl)pyridin-2-yl)methyl)acetamide]
17 | 19.2 nM | O=C(N[C@@H](c1ccc(Cl)c(Cl)c1)c1ncccc1F)c1ccc(=O)[nH]c1 [Example 250, (S)-N-((3,4-dichlorophenyl)(3-fluoropyridin-2-yl)methyl)-6-oxo-1,6-dihydropyridine-3-carboxamide 2,2,2-trifluoroacetate]

Row | IC50 | Compound
18 | 21.5 nM | COc1cnccc1C(=O)N[C@@H](c1ccc(C(F)(F)F)cc1)c1ncccc1C(F)(F)F [Example 48, (S)-3-methoxy-N-((4-(trifluoromethyl)phenyl)(3-(trifluoromethyl)pyridin-2-yl)methyl)isonicotinamide]
19 | 50.6 nM | O=C(N[C@@H](c1ccc(C(F)(F)F)cc1)c1ncccc1Br)c1ccc2cccnc2c1 [Example 195, (S)—N-((3-bromopyridin-2-yl)(4-(trifluoromethyl)-phenyl)methyl)quinoline-7-carboxamide]
20 | 75.6 nM | O=C(N[C@@H](c1ccc(C(F)(F)F)cc1)c1ncccc1F)c1ccccn1 [Example 194, (S)-N-((3-fluoropyridin-2-yl)(4-(trifluoromethyl)phenyl)methyl)picolinamide]
21 | 200 nM | Nc1cccnc1C(=O)N[C@@H](c1ccc(C(F)(F)F)cc1)c1ncccc1C(F)(F)F [Example 144, (S)-3-amino-N-((4-(trifluoromethyl)phenyl)(3-(trifluoromethyl)pyridin-2-yl)methyl)picolinamide]
22 | 61.5 nM | O=C(N[C@@H](c1ccc(C(F)(F)F)cc1)c1ncccc1C(F)(F)F)c1ccc(C(=O)O)c(Br)c1 [Example 100, (S)-2-bromo-4-(((4-(trifluoromethyl)phenyl)(3-(trifluoromethyl)pyridin-2-yl)methyl)carbamoyl)benzoic acid]
23 | 38.5 nM | O=C(N[C@@H](c1ccc(OC(F)(F)F)c(F)c1)c1ncccc1F)c1cc2n(n1)CCCO2 [Example 355, (S)-N-((3-fluoro-4-(trifluoromethoxy)phenyl)(3-fluoropyridin-2-yl)methyl)-6,7-dihydro-5H-pyrazolo[5,1-b][1,3]oxazine-2-carboxamide]
24 | 245 nM | O=C1CCC(C(=O)N[C@@H](c2ccc(C(F)(F)F)cc2)c2ncccc2C(F)(F)F)CN1 (stereo partly drawn) [Example 65, 6-oxo-N-((S)-(4-(trifluoromethyl)phenyl)(3-(trifluoromethyl)pyridin-2-yl)methyl)piperidine-3-carboxamide]
25 | 1610 nM | O=C(Cc1cccnc1)N[C@@H](c1ccc(OC(F)(F)F)c(F)c1)c1ncccc1F [Example 289, (S)-N-((3-fluoro-4-(trifluoromethoxy)phenyl)(3-fluoropyridin-2-yl)methyl)-2-(pyridin-3-yl)acetamide]
26 | 230 nM | O=C(Cc1ccccc1)N[C@@H](c1ccc(C(F)(F)F)cc1)c1ncccc1C(F)(F)F [Example 218, (S)-2-phenyl-N-((4-(trifluoromethyl)phenyl)(3-(trifluoromethyl)pyridin-2-yl)methyl)acetamide]
27 | 4280 nM | Cn1cc(C(=O)N[C@@H](c2ccc(F)cc2)c2ncccc2F)ccc1=O [Example 341, (S)-N-((4-fluorophenyl)(3-fluoropyridin-2-yl)methyl)-1-methyl-6-oxo-1,6-dihydropyridine-3-carboxamide]
28 | 78.1 nM | O=C(N[C@@H](c1ccc(OC(F)(F)F)c(F)c1)c1ncccc1F)c1ccc(=O)n(C[C@H](O)C(F)(F)F)c1 [Example 408, N-((S)-(3-fluoro-4-(trifluoromethoxy)phenyl)(3-fluoropyridin-2-yl)methyl)-6-oxo-1-((S)-3,3,3-trifluoro-2-hydroxypropyl)-1,6-dihydropyridine-3-carboxamide]
29 | 22.7 nM | O=C(N[C@@H](c1ccc(OC(F)(F)F)cc1)c1ncccc1F)c1ccc(=O)[nH]n1 [Example 350, (S)-N-((3-fluoropyridin-2-yl)(4-(trifluoromethoxy)phenyl)methyl)-6-oxo-1,6-dihydropyridazine-3-carboxamide]
30 | 53 nM | O=C(N[C@@H](c1ccc(I)cc1)c1ncccc1C(F)(F)F)c1ccc(=O)[nH]c1 (stereo in doubt) [Example 376, N-((4-iodophenyl)(3-(trifluoromethyl)pyridin-2-yl)methyl)-6-oxo-1,6-dihydropyridine-3-carboxamide]
31 | 915 nM | Cc1cc([C@H](NC(=O)c2ccc(=O)n(C)c2)c2ncccc2F)ccc1F [Example 339, (S)-N-((4-fluoro-3-methylphenyl)(3-fluoropyridin-2-yl)methyl)-1-methyl-6-oxo-1,6-dihydropyridine-3-carboxamide]
32 | 149 nM | O=C(N[C@@H](c1ccc(C(F)(F)F)c(F)c1)c1ncccc1C(F)(F)F)[C@H]1CCCO1 [Example 123, (R)-N-((S)-(3-fluoro-4-(trifluoromethyl)phenyl)(3-(trifluoromethyl)pyridin-2-yl)methyl)THF-2-carboxamide]
33 | 39.7 nM | O=C(N[C@@H](c1ccc(C(F)(F)F)cc1)c1ncccc1C(F)(F)F)c1ccccn1 [Example 228, (S)-N-((4-(trifluoromethyl)phenyl)(3-(trifluoromethyl)pyridin-2-yl)methyl)picolinamide]
